Results on one molecule are retold here after patent publication US20100178243A1, “Novel method of stabilizing diagnostic and therapeutic compounds in a cationic carrier system” (MediGene AG, priority 2002, published 2010).

In the test the test system is A-375 Melanoma. Put plainly: Therapeutic efficacy of LipoCam in A-375 melanoma of nude mice. It is filed as in vivo. To be noted: iv, three times a week for three weeks, equitoxic doses; s.c. A-375 tumors; FIG. 11. The method, then:
NMRI-nude mice were purchased from Elevage Janvier and housed in isolated ventilated cages under save environmental conditions (SPF facility, 22° C., 30-70% humidity, 12 h light/dark cycle) with food and water ad libitum. Experimental design was reviewed and approved by local government.
Tumor cells (A-375 human melanoma cell line, ATCC Nr.: CRL-1619) were grown as described in the data sheet supplied by ATCC. Tumor cells (5×10^6 in PBS) were inoculated s.c. in the right dorsal flank of mice in a volume of 50 μl on day 0.
Mice were assigned to the experimental groups (8 animals per cage), housed and handled (including monitoring of the body weight gain) at least five days before tumor inoculation (=day −6 to 0). […] Equitoxic doses of the compounds were determined in separate experiments, where toxicity was evaluated based on haematological parameters, body weight and animal clinical observations. […]
Animals were clinically monitored during the whole experiment and for at least one week after treatment was finished. […] The tumor dimensions were measured by calliper and the tumor size was calculated according to the following formula: V=πLW^2/6 (L=greatest length, W=width of perpendicular axis). […] The number of red and white blood cells and platelets were determined using an automated cell counter (Abbott Cell Dyn 3500).

As for `CC[C@@](O)(C(=O)[O-])c1cc2n(c(=O)c1CO)Cc1cc3ccccc3nc1-2.[Na+]` [CPT-Na-Carboxylate], the “anti-tumor effect (in words)” value is “only a retardation as compared to the control group”.
